This note sets out measurements from patent US20260008788A1, “AZA-FUSED RING COMPOUND, PREPARATION METHOD THEREFOR, AND USE THEREOF IN MEDICINE” (SUZHOU ARK BIOPHARMACEUTICAL CO., LTD., priority 2022, published 2026).

Each structure is given as a SMILES string. Bounds are passed on as bounds.

The assay deals with T1, PDE4B2 (Homo sapiens, UniProt Q07343).
T1 construct: purchased BPS bioscience 60042
T1 sequence (Q07343 1-564 isoform Q07343-2): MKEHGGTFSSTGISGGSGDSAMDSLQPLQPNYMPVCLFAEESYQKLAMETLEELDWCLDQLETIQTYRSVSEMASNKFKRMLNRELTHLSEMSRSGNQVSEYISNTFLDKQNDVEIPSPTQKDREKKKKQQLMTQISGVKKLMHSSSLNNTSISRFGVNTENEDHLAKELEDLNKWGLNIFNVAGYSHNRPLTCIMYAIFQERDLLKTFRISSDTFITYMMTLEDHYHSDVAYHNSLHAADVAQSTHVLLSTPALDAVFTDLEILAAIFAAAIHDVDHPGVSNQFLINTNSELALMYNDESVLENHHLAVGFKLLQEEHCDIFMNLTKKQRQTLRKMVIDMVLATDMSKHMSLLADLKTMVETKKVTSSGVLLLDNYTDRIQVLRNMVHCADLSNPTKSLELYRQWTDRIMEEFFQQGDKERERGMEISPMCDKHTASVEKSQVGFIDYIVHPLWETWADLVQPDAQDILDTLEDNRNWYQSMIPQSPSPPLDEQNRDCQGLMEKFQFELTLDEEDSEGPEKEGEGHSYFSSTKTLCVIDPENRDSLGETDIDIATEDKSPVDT
Description: Inhibitory effect on PDE4 enzyme (AMP-Glo Assay kit), PDE4B2. Type of assay: biochemical. To be noted: cAMP substrate, 60 minutes at room temperature, AMP-Glo detection. The text has this: PDE4 enzyme can hydrolyze cAMP to produce AMP. The synthetic PDE4 enzyme inhibitor act together with PDE4 enzyme and the substrate cAMP for a certain period of time, and then the AMP-Glo™ Assay kit was used for detection. The detection is divided into two steps: first, converting the AMP produced in the reaction into ADP, and second, converting ADP into ATP. ATP binds to the reagent and emits […]. The fluorescence value is detected using an […]. IC50 value of the PDE4 enzyme inhibitor was calculated by plotting a graph with the […] values. The specific details are as follows:
The compound plate was centrifuged at 1000 rpm for 1 minute.
% Inhibition={1−(Average RLU of the compound−Average RLU of the positive control of the whole plate)/(Average RLU of the negative control of the whole plate−Average RLU of the positive control of the whole plate)}
The IC50 is calculated by fitting the % inhibition values and the logarithm of the compound concentration to a non-linear regression (dose response-variable slope) using Graphpad 8.0.
In general, IC50 refers to the concentration that inhibits the measured activity by half. With `[O-][S@+]1CCc2nc(N3CCc4oc(C5CCCCC5)nc4C3)nc(NC3(CO)CCC3)c21` [Example 5, (R)-2-(2-cyclohexyl-6,7-dihydrooxazolo[4,5-c]pyridin-5(4H)-yl)-4-((1-(hydroxymethyl)cyclobutyl)amino)-6,7-dihydrothieno[3,2-d]pyrimidine 5-oxide], inhibition was half-maximal at 0.93 nM (IC50). This lies in the sub-nanomolar range.
Regarding `[O-][S@+]1CCc2nc(N3CCc4c(cnn4-c4ccccc4)C3)nc(NC3(CO)CCC3)c21` [Example 12, (R)-4-((1-(hydroxymethyl)cyclobutyl)amino)-2-(1-phenyl-1,4,6,7-tetrahydro-5H-pyrazolo[4,3-c]pyridin-5-yl)-6,7-dihydrothieno[3,2-d]pyrimidine-5-oxide], the IC50 is 0.63 nM.
Regarding `Cc1cc(C(F)(F)F)c(CNc2nc(N3CCc4oc(-c5ccc(F)cc5)nc4C3)nc3c2[S@+]([O-])CC3)c(=O)[nH]1` [Example 17, (R)-3-(((2-(2-(4-fluorophenyl)-6,7-dihydrooxazolo[4,5-c]pyridin-5(4H)-yl)-5-oxido-6,7-dihydrothieno[3,2-d]pyrimidin-4-yl)amino)methyl)-6-methyl-4-(trifluoromethyl)pyridin-2(1H)-one], the IC50 is 8.9 nM.
With `COc1nc(C)cc(C)c1CNc1nc(N2CCc3oc(-c4ccc(F)cc4)nc3C2)nc2c1[S@+]([O-])CC2` [Example 18, (R)-2-(2-(4-fluorophenyl)-6,7-dihydrooxazolo[4,5-c]pyridin-5(4H)-yl)-4-(((2-methoxy-4,6-dimethylpyridin-3-yl)methyl)amino)-6,7-dihydrothieno[3,2-d]pyrimidine 5-oxide], the IC50 was 0.5 nM.
Regarding `[O-][S@+]1CCc2nc(N3CCc4cc(-c5ncccn5)ccc4C3)nc(NC34CC(CO)(C3)C4)c21` [Example 24, (R)-4-((3-(hydroxymethyl)bicyclo[1.1.1]pentan-1-yl)amino)-2-(6-(pyrimidin-2-yl)-3,4-dihydroisoquinolin-2(1H)-yl)-6,7-dihydrothieno[3,2-d]pyrimidine 5-oxide], the IC50 was below 0.1 nM.
